The text below walks through data of a melting point compilation (Tetko et al.).

The term melting point denotes the temperature of the solid-liquid transition.

As for `O=[N+]([O-])c1cc([N+](=O)[O-])c(C=C(Cl)c2ccccc2)cc1C=C(Cl)c1ccccc1`, the melting point came out at 145 °C.

As for `CC(C)(C)N(NC(=O)c1ccccc1)C(=O)c1ccccc1[N+](=O)[O-]`, the melting point was determined as 182 °C.

`O=C(O)[C@@H]1C[C@H]1c1ccccc1` (relative stereo) registered a melting point of 86 to 92 °C.

As for `O=C(O)c1ccc(N2CCOCC2)cc1`, the melting point fell in the range of 278 to 281 °C.

Molecule `O=c1[nH]c2scc(-c3ccccc3)c2c(=O)n1-c1ccc(F)cc1` gave a melting point of 300 to 302 °C.

With `COC(=O)c1ccc(N)c(C)c1`, the melting point lay within 116 to 117 °C.

For `CCCCNc1cc(C(=O)O)cc(S(N)(=O)=O)c1Oc1ccccc1`, the melting point worked out at 231 °C.

On to `OCc1cccc(OCCN2CCOCC2)c1`, for which the melting point lay within 55 to 60 °C.

`Cc1cc(C(=O)O)nn1C`: the melting point lay within 175 to 178 °C.

`CCOC(=O)c1ccncc1` showed a melting point of 23 °C.

In turn, `FC(F)(F)c1nnc(S)n1N=Cc1ccc(Cl)cc1` came in with a melting point of 255 °C.

Molecule `COc1cc([N+](=O)[O-])ccc1S(=O)(=O)Cl` returned a melting point of 97 °C.

As for `NC(=S)NN=C1C2CCCC1C1(O)CCCCC1C2` (configuration not stated), the melting point came to 184 °C.

Molecule `N=C(N)N/N=C(\C(=S)Nc1ccc(Br)cc1)c1ccccc1` registered a melting point of 210 to 211 °C.

For `Clc1ccc(Oc2ccccc2)cc1`, the melting point is -8 °C.

As for `N#Cc1ccc2nonc2c1`, the melting point lay within 86 to 88 °C.

`CCN(O)CC` displayed a melting point of 10 °C.

As to `O=Cc1ccc(-c2ccc(Br)cc2)o1`, the melting point is 150 to 155 °C.

`OC(Cc1ccccc1)C(Cc1ccccc1)=NNc1ccc(Br)cc1` (configuration not stated): the melting point came out at 139 °C.

Take `CCOC(=O)c1c(SC)nn(C(=O)c2cccc([N+](=O)[O-])c2)c1N`: the melting point amounted to 153 °C.

Take `O=C1/C(=N\Nc2cc(-c3ccccc3)n[nH]2)C(C(F)(F)F)=NN1c1ccccc1`: the melting point stood at 280 °C.

`FC(Cl)C(Cl)(Cl)Cl` (configuration not stated): the melting point was -95.3 °C.

As for `Cc1ccc(/N=N/c2c(N)nn3c(C(F)(F)F)cc(C)nc23)c(C)c1`, the melting point came to 220 °C.

Molecule `N#Cc1coc2ccccc2c1=O` displayed a melting point of 174 to 178 °C.

As for `C=C(C)C1CCC2(C)CCC3(C)C(CCC4C5(C)CCC(O)C(C)(C)C5CCC43C)C12` (configuration not stated), the melting point came out at 216 °C.

`Cc1cc2ccccc2cc1CBr` came in with a melting point of 88 to 102 °C.

In turn, `Oc1ccccc1/C=C/c1ccccc1` gave a melting point of 147 °C.

For the molecule `CCCCCN=C(N)NNC=C1C=Nc2ccc(CO)cc21`, the melting point was 155 °C.

In turn, `C/C=C/C1Nn2c(nnc2-c2ccccc2OC)S1` (configuration not stated) had a melting point of 124 to 126 °C.

On to `NS(=O)(=O)c1cccc([N+](=O)[O-])c1`, for which the melting point was found to be 167 °C.

With `O=C(C=NNc1ccccc1)c1ccc(C(=O)C=NNc2ccccc2)cc1`, the melting point came to 210 °C.

`Cc1ccc(CCl)c2ccccc12` registered a melting point of 58 to 60 °C.

Molecule `CCCCc1c(C)nc(NCC)nc1OS(=O)(=O)N(C)C` had a melting point of 50.5 °C.

Turning to `FC(F)OCC(F)(F)C(F)(F)F`, the melting point is -107 °C.

Take `Cc1ccc(I)cc1F`: the melting point was determined as 23 °C.

For `O=C1OC(=O)c2cc(F)ccc21`, the melting point was 75 to 78 °C.

Take `c1ccc(/N=N/c2ccccc2NNc2ccccc2)cc1`: the melting point was determined as 99 °C.

`CC1C(=O)C23C4CC5C(C)(C)CCC(=O)C5(C)C2C(=O)CC1C3OC(C)(C)O4` (configuration not stated): the melting point is 197 °C.

As for `Sc1nnc(-c2cc(Cl)nc(Cl)c2)o1`, the melting point fell in the range of 205 to 206 °C.

Turning to `CCC(N)CO` (configuration not stated), the melting point was -2 °C.

As to `CC1(C)OC2CC3C4CC(F)C5=CC(=O)C=CC5(C)C4(F)C(O)CC3(C)C2(C(=O)CO)O1` (configuration not stated), the melting point stood at 266 °C.

With `O=C(O)c1ccc(C(F)(F)F)nc1`, the melting point was found to be 192 °C.

Molecule `CCOC(O)=C1C=NC2=C(CNN2C)C1=O` displayed a melting point of 139 °C.

In turn, `Cc1cc(=O)oc2cc(OC3OC(CO)C(O)C(O)C3O)ccc12` (configuration not stated) returned a melting point of 248 °C.

As to `CCCCCCCCCCCCCOCC1CO1` (configuration not stated), the melting point is 1.6 °C.

The molecule `O=C(Cl)c1c(Cl)cccc1Cl` showed a melting point of 18 °C.

As to `Cc1sc2c(c1C)C(=O)CS(=O)(=O)N2C`, the melting point lay in the range of 122 to 124 °C.

For `CC(=O)Nc1ccc(C(F)(F)F)cc1N`, the melting point was 141 to 143 °C.

On to `Nc1cccc(C2OCCCO2)c1`, for which the melting point lay in the range of 75 to 76 °C.

Take `O=Cc1cc(Cl)ccc1[N+](=O)[O-]`: the melting point was in the range of 75 to 77 °C.

The molecule `CC(C)OC(=O)Nc1cccc(Cl)c1` displayed a melting point of 42 °C.

`C=CCc1cc(OC)c2c(c1OC)OCO2` registered a melting point of 29.5 °C.

The molecule `O=C1C2=C(CCCC2)C(=O)N1CO` yielded a melting point of 80 to 84 °C.

With `Cc1cc(C)nc(Cl)n1`, the melting point lay within 34 to 36 °C.

The molecule `Oc1ccc(-n2cccc2)cc1` came in with a melting point of 119 to 124 °C.

For the molecule `Clc1cc(Cl)cc(Br)c1`, the melting point turned out to be 83 °C.

The molecule `N[C@@H](CSCC(=O)O)C(=O)O` returned a melting point of 206 °C.

Regarding `c1ccc(C(OC[C@H]2CO2)(c2ccccc2)c2ccccc2)cc1`, the melting point is 98 to 101 °C.

For the molecule `Cl[Si](Cl)(Cl)CCC12CC3CC(CC(C3)C1)C2`, the melting point turned out to be 36 °C.

On to `CC(C)(C)C1=NNC(=O)C1`, for which the melting point stood at 210 °C.

As for `CC(=O)NC1C2CCC(C)(C1NC(C)=O)C2(C)C` (configuration not stated), the melting point is 309 °C.

Regarding `CC(C)(C)C(O)C(C)(C)C`, the melting point stood at 50 °C.

`CC1(C)OC(=O)CC1CC(=O)O` (configuration not stated): the melting point turned out to be 90 °C.

`O=C(N[C@@H](Cc1cccc(F)c1)C(=O)O)OCC1c2ccccc2-c2ccccc21` gave a melting point of 156 °C.

For the molecule `O=S1(=O)C=Cc2ccccc21`, the melting point is 138 to 142 °C.

Take `CC(C)CSCC(C)C`: the melting point was -106 °C.

In the case of `CNCCOC(=O)C=C1CCC2C(C(O)CC3C(C)(C(=O)OC)CCCC23C)C1C` (configuration not stated), the melting point was found to be 115 °C.

Take `Clc1cccc(-c2cccc(Cl)c2)c1`: the melting point was 29 °C.

For `Cc1ccc(NC(=O)C=Cc2ccc(C=CC(=O)Nc3ccc(C)cc3)cc2)cc1`, the melting point is 315 °C.

In turn, `FC(F)(F)c1ccc(=S)[nH]c1` gave a melting point of 159 to 160 °C.

For `CC1=NN(c2ccccc2)C(=O)C1`, the melting point worked out at 129 °C.

In turn, `CCCCCCCCCCCCCCCCCC(=O)OCCCCC` displayed a melting point of 30 °C.

As to `Fc1ccc(Br)c(CBr)c1`, the melting point worked out at 35 °C.

For the molecule `COc1ccc(C2Cc3ccccc3C(=O)O2)cc1` (configuration not stated), the melting point was determined as 108 °C.

`CC(C)C1=C(O)C(=O)C2=C(C1=O)C(O)C(O)C1C(C)(C)CCCC21C` (configuration not stated) showed a melting point of 203 to 205 °C.

For the molecule `Cc1ccc(S(=O)(=O)OCCOCc2ccccc2)cc1`, the melting point lay in the range of 48 to 51 °C.

The molecule `CC(=O)OC1CCC2(C)C(=CCC3C2CCC2(C)C(C(C)=O)CCC32)C1` (configuration not stated) returned a melting point of 149 to 152 °C.

Consider `O=c1[nH]c2ccc(Br)cc2s1`, for which the melting point fell in the range of 228 to 232 °C.

With `Cc1nc(NC(=O)NS(=O)(=O)c2cccs2)nc(O)c1C`, the melting point was 219 to 221 °C.

`C=Cc1ccccc1CC`: the melting point was -75.5 °C.

In the case of `CCOC(=O)Cc1csc(N)n1`, the melting point lay in the range of 91 to 95 °C.

Molecule `CCOC(=O)C1CSCCN1` (configuration not stated) had a melting point of 118 to 121 °C.

In the case of `CNC(=O)COC(=O)c1ccccc1`, the melting point came out at 112 °C.

`ON=CC1=C(/C=C/c2ccccc2)CCC1` had a melting point of 162 to 163 °C.

The molecule `COc1ccc(OC)c2ccccc12` came in with a melting point of 85 to 86 °C.

On to `FC(F)(F)c1cc(Cl)cc(Cl)c1`, for which the melting point is -13 to -12 °C.

`CCOC(=O)c1c(SC)nn(C(=O)c2ccccc2)c1N` yielded a melting point of 95 °C.

The molecule `c1ccc(N=Nc2ccc(N=Nc3ccc(/N=N/c4ccc(N=Nc5ccccc5)cc4)cc3)cc2)cc1` had a melting point of 275 °C.

The molecule `CCOC(=O)c1cn(C(C)=O)nc1N` had a melting point of 110 °C.

As to `Cc1cc2occc(=O)c2cc1Cl`, the melting point came to 171 °C.

`CC(=O)Nc1ccccc1N` yielded a melting point of 135 °C.

`OCc1cccc(COc2ccccc2)c1` displayed a melting point of 58 to 60 °C.

In turn, `Cc1nc(-c2cccc(S(=O)(=O)Cl)c2)cs1` gave a melting point of 116 to 118 °C.

Molecule `CCCCCCCCC(C(=O)O)C(=O)O` came in with a melting point of 116 °C.

For `Cc1ccc(C(N)=O)c(N)c1`, the melting point fell in the range of 147 to 148 °C.

Consider `NC(=S)c1ccccc1N`, for which the melting point lay within 120 to 122 °C.

In turn, `O=C(c1ccc(F)cc1)C(F)(F)F` displayed a melting point of 24 to 27 °C.

In turn, `S=C(n1ccnc1)n1ccnc1` showed a melting point of 96 to 103 °C.

For `c1cc2c(cc1OC1OCC3C(c4ccc5c(c4)OCO5)OCC13)OCO2` (configuration not stated), the melting point amounted to 93.5 °C.

`COc1cccc(Nc2ccccc2)c1` showed a melting point of 73 °C.

The molecule `COc1ccccc1C=N/N=c1/sc(C(C)=O)nn1-c1ccccc1[N+](=O)[O-]` had a melting point of 178 °C.

`Cc1ccc(N2CSc3nnc(-c4ccc([N+](=O)[O-])cc4)n3C2)cc1` came in with a melting point of 226 °C.

Turning to `CC(C)NC(=O)c1cc(F)c(Cl)nc1Cl`, the melting point lay within 159 to 161 °C.

`CCCc1c(C(=O)O)cnn1-c1cc(Cl)cc(Cl)c1`: the melting point lay within 169 to 171 °C.

In the case of `O=C(O)c1cncc(C#Cc2ccccc2)c1`, the melting point lay in the range of 245 to 247 °C.

In turn, `CC(c1ccccc1)C(NC(=O)OC(C)(C)C)C(=O)O` (configuration not stated) had a melting point of 100 to 105 °C.

Molecule `CCCCCCCCCCCCCCCC(=O)c1ccccc1` had a melting point of 59 °C.

As to `COC1(OC)C2C=C3OC(=O)C1C3(C)O2` (configuration not stated), the melting point fell in the range of 199 to 201 °C.

Regarding `CC(C)C1COC2(C)C=CC(=O)N12` (configuration not stated), the melting point lay within 46 to 50 °C.

On to `O=C=Nc1ccc(F)c([N+](=O)[O-])c1`, for which the melting point lay within 27 to 28 °C.

For the molecule `CC(=O)CC(C)=O`, the melting point was -23 °C.

In turn, `CC12CCC(C(C(Br)c3ccccc3)OC1=O)C2(C)C` (configuration not stated) came in with a melting point of 141 °C.
